Source: the NIST ThermoML archive (doi:10.1021/je060271a)
Several values for one entry are separate records, joined by “and”; a condition that tells them apart may be missing. Identical values can stand only once.

Settings: 303.15 K, Liquid, Vibrating tube method

CCCCCC(=O)OCC(COC(=O)CCCCC)(COC(=O)CCCCC)COC(=O)CCCCC [pentaerythritol tetrahexanoate]
Settings	mass density
8586.4 kPa	993.8 kg/m3
8609.7 kPa	993.8 kg/m3
8636.8 kPa	993.8 kg/m3
8659.9 kPa	993.9 kg/m3
8683.2 kPa	993.9 kg/m3
8710.9 kPa	993.9 kg/m3
8734.7 kPa	993.9 kg/m3
8758.2 kPa	993.9 kg/m3
8782.3 kPa	993.9 kg/m3
8806.3 kPa	994 kg/m3
8834.9 kPa	994 kg/m3
8858 kPa	993.9 kg/m3
8886.3 kPa	994 kg/m3
8910.4 kPa	994 kg/m3
8934.4 kPa	994 kg/m3
8958.2 kPa	994 kg/m3
8987 kPa	993.9 kg/m3
9010.8 kPa	994.1 kg/m3
9035.1 kPa	994.1 kg/m3
9064.4 kPa	994.1 kg/m3
9088.5 kPa	994.1 kg/m3
9118.9 kPa	994.2 kg/m3
9143 kPa	994.1 kg/m3
9168.2 kPa	994.3 kg/m3
9192.8 kPa	994.1 kg/m3
9222.6 kPa	994.1 kg/m3
9247.5 kPa	994.2 kg/m3
9272.5 kPa	994.3 kg/m3
9301.8 kPa	994.2 kg/m3
9327.6 kPa	994.2 kg/m3
9352.8 kPa	994.4 kg/m3
9378.4 kPa	994.3 kg/m3
9409.1 kPa	994.3 kg/m3
9434.6 kPa	994.3 kg/m3
9461.4 kPa	994.4 kg/m3
9492.2 kPa	994.3 kg/m3
9517.5 kPa	994.3 kg/m3
9543.4 kPa	994.4 kg/m3
9574.4 kPa	994.4 kg/m3
9600.4 kPa	994.5 kg/m3
9627 kPa	994.4 kg/m3
9658 kPa	994.6 kg/m3
9684.2 kPa	994.6 kg/m3
9710.4 kPa	994.5 kg/m3
9742.2 kPa	994.4 kg/m3
9768.8 kPa	994.5 kg/m3
9796.2 kPa	994.6 kg/m3
9828.9 kPa	994.6 kg/m3
9855.9 kPa	994.7 kg/m3
9882.5 kPa	994.6 kg/m3
9909.3 kPa	994.6 kg/m3
9941.9 kPa	994.6 kg/m3
9968.9 kPa	994.7 kg/m3
9997 kPa	994.7 kg/m3
10030 kPa	994.7 kg/m3
10057 kPa	994.7 kg/m3
10085 kPa	994.7 kg/m3
10118 kPa	994.7 kg/m3
10146 kPa	994.8 kg/m3
10174 kPa	994.8 kg/m3
10202 kPa	994.8 kg/m3
10236 kPa	994.8 kg/m3
10264 kPa	994.8 kg/m3
10297 kPa	994.8 kg/m3
10325 kPa	994.9 kg/m3
10354 kPa	994.8 kg/m3
10383 kPa	994.8 kg/m3
10417 kPa	994.9 kg/m3
10445 kPa	994.9 kg/m3
10474 kPa	995 kg/m3
10508 kPa	994.9 kg/m3
10537 kPa	994.9 kg/m3
10573 kPa	995.1 kg/m3
11095 kPa	995.5 kg/m3
11124 kPa	995.3 kg/m3
11154 kPa	995.4 kg/m3
11188 kPa	995.3 kg/m3
11217 kPa	995.4 kg/m3
11246 kPa	995.5 kg/m3
11280 kPa	995.5 kg/m3
11309 kPa	995.4 kg/m3
11338 kPa	995.5 kg/m3
11372 kPa	995.5 kg/m3
11399 kPa	995.6 kg/m3
11427 kPa	995.6 kg/m3
11649 kPa	995.6 kg/m3
11671 kPa	995.7 kg/m3
11694 kPa	995.7 kg/m3
11712 kPa	995.7 kg/m3
11728 kPa	995.6 kg/m3
11744 kPa	995.7 kg/m3
11761 kPa	995.7 kg/m3
11774 kPa	995.7 kg/m3
11800 kPa	995.8 kg/m3
11835 kPa	995.8 kg/m3
11840 kPa	995.9 kg/m3
11846 kPa	995.8 kg/m3
11853 kPa	995.9 kg/m3
11865 kPa	995.8 kg/m3
11879 kPa	995.9 kg/m3
11887 kPa	995.8 kg/m3
11892 kPa	995.9 kg/m3
11903 kPa	995.8 kg/m3
11916 kPa	995.8 kg/m3
11919 kPa	995.9 kg/m3
11920 kPa	995.9 kg/m3 and 995.8 kg/m3 and 995.7 kg/m3
11921 kPa	995.9 kg/m3
11922 kPa	995.8 kg/m3 and 995.9 kg/m3
11923 kPa	995.8 kg/m3
12035 kPa	995.9 kg/m3
12053 kPa	996 kg/m3
12071 kPa	995.9 kg/m3
12092 kPa	995.9 kg/m3
12111 kPa	995.9 kg/m3
12129 kPa	996 kg/m3
12151 kPa	996.1 kg/m3
12169 kPa	996 kg/m3
12188 kPa	995.9 kg/m3
12212 kPa	996 kg/m3
12226 kPa	996.1 kg/m3
12248 kPa	996 kg/m3
12267 kPa	996.1 kg/m3
12285 kPa	996.1 kg/m3
12308 kPa	996.1 kg/m3
12326 kPa	996.1 kg/m3
12348 kPa	996.1 kg/m3
12367 kPa	996.1 kg/m3
12386 kPa	996.2 kg/m3
12409 kPa	996.2 kg/m3
12428 kPa	996.2 kg/m3
12448 kPa	996.1 kg/m3
12468 kPa	996.2 kg/m3
12490 kPa	996.3 kg/m3
12509 kPa	996.3 kg/m3
12529 kPa	996.2 kg/m3
12552 kPa	996.3 kg/m3
12571 kPa	996.1 kg/m3
12591 kPa	996.2 kg/m3
12610 kPa	996.3 kg/m3
12634 kPa	996.3 kg/m3
12654 kPa	996.2 kg/m3
12673 kPa	996.3 kg/m3
12697 kPa	996.4 kg/m3
12716 kPa	996.4 kg/m3
12736 kPa	996.4 kg/m3
